Values quoted from earlier work in patent publication US20260355187A1, “LURBINECTEDIN AND DOXORUBICIN COMBINATION” (PHARMA MAR, S.A., priority 2022, published 2026).
pIC50: −log10 of the molar value. Structures can show the parent of a compound that is named as a salt.

Key:
CYP3A4 = settings: role: substrate; human microsomes, in vitro
[1] = test system: NCI panel of 36 cell lines
[2] = test system: tumour-derived cell lines; settings: in vitro
[3] = test system: tumour-associates macrophages; settings: by inhibiting active transcription
CYP2E1 = settings: role: substrate; human microsomes, in vitro; after CYP3A4
other CYP isoenzymes = settings: role: substrate; human microsomes, in vitro
CYP2D6 = settings: role: substrate
P-glycoprotein (P-gp) = settings: role: substrate
[4] = test system: CYP3A4, CYP2D6, and/or P-gp; settings: role: substrate; inhibitors e.g. verapamil
cytochrome P450 CYP3A4 = settings: role: substrate

Row | SMILES | Contribution of CYP3A4 to metabolism (CYP3A4) | COMPARE analysis ([1]; against other 98 standard anticancer agents) | COMPARE correlation with trabectedin (S-rank) ([1]; versus trabectedin) | half maximal inhibitory concentration (IC50), range in words ([2]; broad selection of tumour-derived cell lines) | pIC50 ([2]; median over tumour-derived cell lines) | Cytokine production in tumour-associated macrophages [3] | Contribution of CYP2E1 to metabolism (CYP2E1) | Estimated contribution of the other CYP isoenzymes to metabolism (other CYP isoenzymes) | Substrate of CYP2D6 (CYP2D6) | Substrate of P-glycoprotein (P-gp) (P-glycoprotein (P-gp)) | Clinical interaction with inhibitors of CYP3A4, CYP2D6, and/or P-gp [4] | Substrate of CYP3A4 (cytochrome P450 CYP3A4)
1 | COc1ccc2[nH]c3c(c2c1)CCN[C@]31CS[C@@H]2c3c(OC(C)=O)c(C)c4c(c3[C@H](COC1=O)N1[C@@H]2[C@H]2c3c(cc(C)c(OC)c3O)C[C@@H]([C@@H]1O)N2C)OCO4 [lurbinectedin] | major CYP isoform involved in the metabolism | negative | > 0.8 | low to very low nanomolar range | ~10.00 | downregulates IL-6, IL-8, CCL2, and VEGF | followed by CYP2E1 | negligible |  |  |  | 
2 | COc1cccc2c1C(=O)c1c(O)c3c(c(O)c1C2=O)C[C@@](O)(C(=O)CO)C[C@@H]3O[C@H]1C[C@H](N)[C@H](O)[C@H](C)O1 [doxorubicin, 5,12-Naphthacenedione, 10-[(3-amino-2,3,6-trideoxy-α-L-lyxo-hexopyranosyl)oxy]-7,8,9,10tetrahydro-6,8,11-trihydroxy-8-(hydroxylacetyl)-1-methoxy-, hydrochloride (8S-cis)] |  |  |  |  |  |  |  |  | major substrate | major substrate | increased concentration and clinical effect of doxorubicin | major substrate
